Results published in patent US20150252047A1, “SUBSTITUTED INDAZOL-PYRROLOPYRIMIDINES USEFUL IN THE TREATMENT OF HYPERPROLIFERATIVE DISEASES” (BAYER PHARMA AKTIENGESELLSCHAFT, priority 2012, published 2015).

Target: T1, human full-length MKNK1 (Homo sapiens, UniProt Q9BUB5, T385D)
T1 construct: GST (N); purchased Carna Biosciences 02-145; host or cells: insect cells (baculovirus expression system)
Assay: MKNK1 kinase high ATP assay (TR-FRET)
Type: biochemical
Conditions: high ATP (2 mM final), 15 min preincubation with enzyme, 30 min reaction at 22° C.
Procedure: MKNK1-inhibitory activity at high ATP of compounds of the present invention after their preincubation with MKNK1 was quantified employing the TR-FRET-based MKNK1 high ATP assay as described in the following paragraphs.
A recombinant fusion protein of Glutathione-S-Transferase (GST, N-terminally) and human full-length MKNK1 (amino acids 1-424 and T344D of accession number BAA 19885.1), expressed in insect cells using baculovirus expression system and purified via glutathione sepharose affinity chromatography, was purchased from Carna Biosciences (product no 02-145) and used as enzyme. As substrate for the kinase reaction the biotinylated peptide biotin-Ahx-IKKRKLTRRKSLKG (C-terminus in amide form) was used, which can be purchased e.g. from the company Biosyntan (Berlin-Buch, Germany).
For the assay 50 nL of a 100 fold concentrated solution of the test compound in DMSO was pipetted into a black low volume 384 well microtiter plate (Greiner Bio-One, Frickenhausen, Germany), 2 μL of a solution of MKNK1 in aqueous assay buffer [50 mM HEPES pH 7.5, 5 mM MgCl2, 1.0 mM dithiothreitol, 0.005% (v/v) Nonidet-P40 (Sigma)] was added and the mixture was incubated for 15 min at 22° C. to allow pre-binding of the test compounds to the enzyme before the start of the kinase reaction. Then the kinase reaction was started by the addition of 3 μL of a solution of adenosine-tri-phosphate (ATP, 3.3 mM=>final conc. in the 5 μL assay volume is 2 mM) and substrate (0.1 μM=>final conc. in the 5 μL assay volume is 0.06 μM) in assay buffer and the resulting mixture was incubated for a reaction time of 30 min at 22° C. The concentration of MKNK1 was adjusted depending of the activity of the enzyme lot and was chosen appropriate to have the assay in the linear range, typical concentrations were in the range of 0.003 μg/mL. The reaction was stopped by the addition of 5 μL of a solution of TR-FRET detection reagents (5 nM streptavidine-XL665 [Cisbio Bioassays, Codolet, France] and 1 nM anti-ribosomal protein S6 (pSer236)-antibody from Invitrogen [#44921G] and 1 nM LANCE EU-W1024 Labeled ProteinG [Perkin-Elmer, product no. AD0071]) in an aqueous EDTA-solution (100 mM EDTA, 0.1% (w/v) bovine serum albumin in 50 mM HEPES pH 7.5).
The resulting mixture was incubated for 1 h at 22° C. to allow the formation of complex between the phosphorylated biotinylated peptide and the detection reagents. Subsequently the amount of phosphorylated substrate was evaluated by measurement of the resonance energy transfer from the Eu-chelate to the streptavidine-XL. Therefore, the fluorescence emissions at 620 nm and 665 nm after excitation at 350 nm were measured in a TR-FRET reader, e.g. a Rubystar (BMG Labtechnologies, Offenburg, Germany) or a Viewlux (Perkin-Elmer). The ratio of the emissions at 665 nm and at […] was taken as the measure for the amount of phosphorylated substrate. The data were normalised (enzyme reaction without inhibitor=0% inhibition, all other assay components but no enzyme=100% inhibition).

T1 sequence (Q9BUB5 1-424 isoform Q9BUB5-2 T344D): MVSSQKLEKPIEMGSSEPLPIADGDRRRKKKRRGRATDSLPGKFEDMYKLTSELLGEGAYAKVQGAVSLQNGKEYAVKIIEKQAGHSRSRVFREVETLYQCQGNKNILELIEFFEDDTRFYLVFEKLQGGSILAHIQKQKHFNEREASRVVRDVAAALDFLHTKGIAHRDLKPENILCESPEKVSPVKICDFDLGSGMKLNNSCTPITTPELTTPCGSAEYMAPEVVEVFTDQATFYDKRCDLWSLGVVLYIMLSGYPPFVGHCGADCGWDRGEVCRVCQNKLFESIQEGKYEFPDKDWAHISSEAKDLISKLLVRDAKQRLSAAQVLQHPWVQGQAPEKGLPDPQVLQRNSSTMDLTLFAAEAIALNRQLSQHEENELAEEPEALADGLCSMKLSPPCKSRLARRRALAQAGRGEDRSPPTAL

Row | SMILES | IC50 [nM]
1 | CCc1[nH]c2ncnc(Nc3cc4cn[nH]c4cc3OC)c2c1C [Example 1, 6-Ethyl-N-(6-methoxy-1H-indazol-5-yl)-5-methyl-7H-pyrrolo[2,3-d]pyrimidin-4-amine] | 3
2 | COc1cc2[nH]ncc2cc1Nc1ncnc2[nH]ccc12 [Example 2, N-(6-methoxy-1H-indazol-5-yl)-7H-pyrrolo[2,3-d]pyrimidin-4-amine] | 17
3 | COc1cc2[nH]ncc2cc1Nc1ncnc2[nH]cc(F)c12 [Example 3, 5-fluoro-N-(6-methoxy-1H-indazol-5-yl)-7H-pyrrolo[2,3-d]pyrimidin-4-amine] | 5
4 | COc1cc2[nH]ncc2cc1Nc1ncnc2[nH]cc(C(=O)NC(C)C)c12 [Example 6, N-isopropyl-4-[(6-methoxy-1H-indazol-5-yl)amino]-7H-pyrrolo[2,3-d]pyrimidine-5-carboxamide] | 16
5 | FC(F)(F)c1n[nH]c2ccc(Nc3ncnc4[nH]ccc34)cc12 [Example 7, N-[3-(trifluoromethyl)-1H-indazol-5-yl]-7H-pyrrolo[2,3-d]pyrimidin-4-amine] | 179
6 | Cc1cc2[nH]ncc2cc1Nc1ncnc2[nH]cc(F)c12 [Example 11, 5-Fluoro-N-(6-methyl-1H-indazol-5-yl)-7H-pyrrolo[2,3-d]pyrimidin-4-amine] | 74
7 | Cc1cc2[nH]ncc2cc1Nc1ncnc2[nH]cc(C(=O)N(C)C)c12 [Example 12, N,N-Dimethyl-4-[(6-methyl-1H-indazol-5-yl)amino]-7H-pyrrolo[2,3-d]pyrimidine-5-carboxamide] | 211
8 | Cc1cc2[nH]ncc2cc1Nc1ncnc2[nH]cc(C(=O)NC(C)C)c12 [Example 14, 4-[(6-Methyl-1H-indazol-5-yl)amino]-N-(propan-2-yl)-7H-pyrrolo[2,3-d]pyrimidine-5-carboxamide] | 34
9 | COc1cc2[nH]ncc2cc1Nc1ncnc2[nH]cc(Br)c12 [Example 19, 5-Bromo-N-(6-methoxy-1H-indazol-5-yl)-7H-pyrrolo[2,3-d]pyrimidin-4-amine] | 1
10 | COc1cc2[nH]ncc2cc1Nc1ncnc2[nH]c(Br)cc12 [Example 20, 6-Bromo-N-(6-methoxy-1H-indazol-5-yl)-7H-pyrrolo[2,3-d]pyrimidin-4-amine] | 13
11 | COc1cc2[nH]ncc2cc1Nc1ncnc2[nH]c(S(C)(=O)=O)cc12 [Example 21, N-(6-Methoxy-1H-indazol-5-yl)-6-(methylsulfonyl)-7H-pyrrolo[2,3-d]pyrimidin-4-amine] | 6
12 | COc1cc2[nH]ncc2cc1Nc1ncnc2[nH]c(C#CCO)cc12 [Example 22, 3-{4-[(6-Methoxy-1H-indazol-5-yl)amino]-7H-pyrrolo[2,3-d]pyrimidin-6-yl}prop-2-yn-1-ol] | 11
13 | COc1cc2[nH]ncc2cc1Nc1ncnc2[nH]c(CCCO)cc12 [Example 23, 3-{4-[(6-Methoxy-1H-indazol-5-yl)amino]-7H-pyrrolo[2,3-d]pyrimidin-6-yl}propan-1-ol] | 27
14 | CC(C)Oc1cc2[nH]ncc2cc1Nc1ncnc2[nH]ccc12 [Example 24, N-[6-(Propan-2-yloxy)-1H-indazol-5-yl]-7H-pyrrolo[2,3-d]pyrimidin-4-amine] | 26
15 | CC(C)Oc1cc2[nH]ncc2cc1Nc1ncnc2[nH]cc(F)c12 [Example 25, 5-Fluoro-N-[6-(propan-2-yloxy)-1H-indazol-5-yl]-7H-pyrrolo[2,3-d]pyrimidin-4-amine] | 5
16 | CC(C)Oc1cc2[nH]ncc2cc1Nc1ncnc2[nH]cc(Br)c12 [Example 26, 5-Bromo-N-[6-(propan-2-yloxy)-1H-indazol-5-yl]-7H-pyrrolo[2,3-d]pyrimidin-4-amine] | 2
17 | CCc1[nH]c2ncnc(Nc3cc4cn[nH]c4cc3OC(C)C)c2c1C [Example 27, 6-Ethyl-5-methyl-N-[6-(propan-2-yloxy)-1H-indazol-5-yl]-7H-pyrrolo[2,3-d]pyrimidin-4-amine] | 3
18 | CC(C)Oc1cc2[nH]ncc2cc1Nc1ncnc2[nH]cc(C(=O)O)c12 [Example 28, 4-{[6-(Propan-2-yloxy)-1H-indazol-5-yl]amino}-7H-pyrrolo[2,3-d]pyrimidine-5-carboxylic acid] | 184
19 | CC(C)Oc1cc2[nH]ncc2cc1Nc1ncnc2[nH]cc(C(=O)N(C)C)c12 [Example 30, N,N-Dimethyl-4-{[6-(propan-2-yloxy)-1H-indazol-5-yl]amino}-7H-pyrrolo[2,3-d]pyrimidine-5-carboxamide] | 141
20 | CC(C)NC(=O)c1c[nH]c2ncnc(Nc3cc4cn[nH]c4cc3OC(C)C)c12 [Example 31, N-(Propan-2-yl)-4-{[6-(propan-2-yloxy)-1H-indazol-5-yl]amino}-7H-pyrrolo[2,3-d]pyrimidine-5-carboxamide] | 94
21 | CC(C)Oc1cc2[nH]ncc2cc1Nc1ncnc2[nH]c(C#CCO)cc12 [Example 32, 3-(4-{[6-(Propan-2-yloxy)-1H-indazol-5-yl]amino}-7H-pyrrolo[2,3-d]pyrimidin-6-yl)prop-2-yn-1-ol] | 14
22 | CC(C)Oc1cc2[nH]ncc2cc1Nc1ncnc2[nH]c(CCCO)cc12 [Example 33, 3-(4-{[6-(Propan-2-yloxy)-1H-indazol-5-yl]amino}-7H-pyrrolo[2,3-d]pyrimidin-6-yl)propan-1-ol] | 35

Second part, the compound after the results:

Row | IC50 [nM] | SMILES
23 | 72 | COc1cc2[nH]ncc2cc1Nc1ncnc2[nH]cc(C(=O)O)c12 [Example 4, 4-[(6-methoxy-1H-indazol-5-yl)amino]-7H-pyrrolo[2,3-d]pyrimidine-5-carboxylic acid]
24 | 110 | COc1cc2[nH]ncc2cc1Nc1ncnc2[nH]cc(C(=O)N3CCN(C)CC3)c12 [Example 5, {4-[(6-methoxy-1H-indazol-5-yl)amino]-7H-pyrrolo[2,3-d]pyrimidin-5-yl}(4-methylpiperazin-1-yl)methanone]
25 | 72 | Cc1cc2[nH]ncc2cc1Nc1ncnc2[nH]cc(C(=O)O)c12 [Example 8, 4-[(6-Methyl-1H-indazol-5-yl)amino]-7H-pyrrolo[2,3-d]pyrimidine-5-carboxylic acid]
26 | 29 | Fc1cc2[nH]ncc2cc1Nc1ncnc2[nH]cc(F)c12 [Example 9, 5-Fluoro-N-(6-fluoro-1H-indazol-5-yl)-7H-pyrrolo[2,3-d]pyrimidin-4-amine]
27 | 14 | O=C(O)c1c[nH]c2ncnc(Nc3cc4cn[nH]c4cc3F)c12 [Example 10, 4-[(6-Fluoro-1H-indazol-5-yl)amino]-7H-pyrrolo[2,3-d]pyrimidine-5-carboxylic acid]
28 | 194 | Cc1cc2[nH]ncc2cc1Nc1ncnc2[nH]cc(C(=O)N3CCN(C)CC3)c12 [Example 13, {4-[(6-Methyl-1H-indazol-5-yl)amino]-7H-pyrrolo[2,3-d]pyrimidin-5-yl}(4-methylpiperazin-1-yl)methanone]
29 | 12 | Fc1cc2[nH]ncc2cc1Nc1ncnc2[nH]cc(Br)c12 [Example 15, 5-Bromo-N-(6-fluoro-1H-indazol-5-yl)-7H-pyrrolo[2,3-d]pyrimidin-4-amine]
30 | 31 | CN(C)C(=O)c1c[nH]c2ncnc(Nc3cc4cn[nH]c4cc3F)c12 [Example 16, 4-[(6-Fluoro-1H-indazol-5-yl)amino]-N, N-dimethyl-7H-pyrrolo[2,3-d]pyrimidine-5-carboxamide]
31 | 30 | CN1CCN(C(=O)c2c[nH]c3ncnc(Nc4cc5cn[nH]c5cc4F)c23)CC1 [Example 17, {4-[(6-Fluoro-1H-indazol-5-yl)amino]-7H-pyrrolo[2,3-d]pyrimidin-5-yl}(4-methylpiperazin-1-yl)methanone]
32 | 9 | CC(C)NC(=O)c1c[nH]c2ncnc(Nc3cc4cn[nH]c4cc3F)c12 [Example 18, 4-[(6-Fluoro-1H-indazol-5-yl)amino]-N-(propan-2-yl)-7H-pyrrolo[2,3-d]pyrimidine-5-carboxamide]
33 | 117 | CC(C)Oc1cc2[nH]ncc2cc1Nc1ncnc2[nH]cc(C(=O)N3CCN(C)CC3)c12 [Example 29, (4-Methylpiperazin-1-yl)(4-{[6-(propan-2-yloxy)-1H-indazol-5-yl]amino}-7H-pyrrolo[2,3-d]pyrimidin-5-yl)methanone]
